Literature values, collected in patent US8980874B2, “Method and composition for treating diabetic ketoacidosis” (Midwestern University, priority 2009, dated 2015).

How the values were obtained:
BBB permeability = conditions: repeated intracisternal administration of ET-1 in dogs and rats; cited from earlier work
[1] = tested on: rat model of embolic stroke; conditions: rat model of embolic stroke where rtPA was used; cited from earlier work

Q: Which “effect on ET-1 induced increase in BBB permeability” value (BBB permeability) does the source give for `CC1(C)CC[C@]2(C(=O)[O-])CC[C@]3(COC(=O)/C=C/c4cc([O-])ccc4NC(=O)/C=C/C(=O)O)C(=CC[C@@H]4[C@@]5(C)CCC(=O)C(C)(C)[C@@H]5CC[C@]43C)[C@@H]2C1.[Na+].[Na+]` [S-0139] here?
A: Its value is “blocked”.

Q: What about the “neuroprotection / rtPA evoked disruption of BBB” value [1] of the same molecule?
A: The value was “provided neuroprotection by suppressing rtPA evoked disruption of BBB”.
